Measured values taken from US20240400564A1 (Syndax Pharmaceuticals, Inc, priority 2021, published 2024).

tested on: MLLr leukemia cell line MV4-11; experiment: Cell proliferation assay MV4;11 (CellTiter-Glo, 72 hours); format: cell-based; details: Homo sapiens; MV4-11 cells, 72 hours, CellTiter-Glo; read-out: MV4; 11 IC50
Description: Compounds were evaluated for its capacity to inhibit the proliferation of the MLLr leukemia cell line MV4-11 that harbors an MLL1-AF4 fusion protein. MV4-11 cells were cultured for 72 hours with limiting dilutions of compounds and viability was measured using CellTiter-Glo.
Compounds were dissolved to obtain as 10 mM solution in DMSO. The stock was diluted 1:5 to the top concentration of 2 mM in 100% DMSO. For IC50 determination, serial 1:3.16 dilutions were prepared in 100% DMSO by diluting 20 μL into 43.5 μL of DMSO for 8 concentrations. Each prepared DMSO solution were further diluted 1:500 in the cell culture media to obtain the 2× dosing solutions. The final concentrations of tested compounds in the cell culture media ranged from 0.632 nM to 2000 nM.
MV4-11 cells were cultured in IMDM with 10% FBS and 1× Penicillin-Streptomycin at 5% CO2 and 37° C. A cell suspension was prepared containing 15,000 cells/ml in the culture medium and 100 μL of this suspension was added per well to a 96-well cell culture plate. Then, 100 μL of 2× dosing media containing test compounds were added bringing the total volume to 200 μL. These cells were cultured for 72 hours at 37° C. and 5% CO2 in a humidified incubator.
After 72 hours, the cultured cells were mixed and 100 μL was transferred to a 96-well black plate. Cell Titer Glo (100 μl) was then added to this plate. The plate was mixed with shaking for 15 mins at RT, the luminescence was then measured using Tecan Spark 20M spectrophotometer. Cell Viability (%) was determined by RLU of test/RLU average vehicle control*100 and % max inhibition was determined by 100−(% cell viability remaining at the top concentration of compound).

IC50, < 100 nM:
CC(C)N(C)C(=O)c1cc(F)ccc1Oc1cncnc1N1CC2(CCN(C[C@@H]3CC[C@@H](NS(=O)(=O)c4ccn(C)n4)CO3)CC2)C1 [Example 53, Fluoro-N-isopropyl-N-methyl-2-((4-(7-(((2S,5R)-5-((1-methyl-1H-pyrazole)-3-sulfonamido)tetrahydro-2H-pyran-2-yl)methyl)-2,7-diazaspiro[3.5]nonan-2-yl)pyrimidin-5-yl)oxy)benzamide]
CC(C)N(C(=O)c1cc(F)ccc1Oc1cncnc1N1CC2(CCN(C[C@@H]3CC[C@@H](NS(=O)(=O)N4CCC[C@H]4C)CO3)CC2)C1)C1CCOC1 (stereo partly drawn) [Example 207, 5-Fluoro-N-isopropyl-2-((4-(7-(((2S,5R)-5-(((R)-2-methylpyrrolidine)-1-sulfonamido)tetrahydro-2H-pyran-2-yl)methyl)-2,7-diazaspiro[3.5]nonan-2-yl)pyrimidin-5-yl)oxy)-N-((S)-tetrahydrofuran-3-yl)benzamide]
CC(C)N(C(=O)c1cc(F)ccc1Oc1cncnc1N1CC2(CCN(C[C@@H]3CC[C@@H](N[S@](=N)(=O)c4ccccc4)CO3)CC2)C1)C(C)C (single isomer, unassigned) [Example 230]
CC(C)N(C(=O)c1cc(F)ccc1Oc1cncnc1N1CC2(CCN(C[C@@H]3CC[C@@H](NS(=O)(=O)N4CCC[C@H]4C)CO3)CC2)C1)[C@@H]1CCOC1 [Example 204, 5-Fluoro-N-isopropyl-2-((4-(7-(((2S,5R)-5-(((R)-2-methylpyrrolidine)-1-sulfonamido)tetrahydro-2H-pyran-2-yl)methyl)-2,7-diazaspiro[3.5]nonan-2-yl)pyrimidin-5-yl)oxy)-N-((R)-tetrahydrofuran-3-yl)benzamide]
Cc1ncc(S(=O)(=O)N[C@@H]2CC[C@@H](CN3CCC4(CC3)CN(c3ncncc3Oc3ccc(F)cc3C(=O)N(C(C)C)C(C)C)C4)OC2)[nH]1 [Example 234, 5-Fluoro-N,N-diisopropyl-2-((4-(7-(((2S,5R)-5-((2-methyl-1H-imidazole)-5-sulfonamido)tetrahydro-2H-pyran-2-yl)methyl)-2,7-diazaspiro[3.5]nonan-2-yl)pyrimidin-5-yl)oxy)benzamide]
CC[S@](=N)(=O)N[C@@H]1CC[C@@H](CN2CCC3(CC2)CN(c2ncncc2Oc2ccc(F)cc2C(=O)N(C(C)C)C(C)C)C3)OC1 (single isomer, unassigned) [Example 227]
CCn1cc(S(=O)(=O)N[C@@H]2CC[C@@H](CN3CCC4(CC3)CN(c3ncncc3Oc3ccc(F)cc3C(=O)N(CC(F)F)C(C)C)C4)OC2)cn1 [Example 106, N-(2,2-Difluoroethyl)-2-((4-(7-(((2S,5R)-5-((1-ethyl-1H-pyrazole)-4-sulfonamido)tetrahydro-2H-pyran-2-yl)methyl)-2,7-diazaspiro[3.5]nonan-2-yl)pyrimidin-5-yl)oxy)-5-fluoro-N-isopropylbenzamide]
Cc1nc(S(=O)(=O)N[C@@H]2CC[C@@H](CN3CCC4(CC3)CN(c3ncncc3Oc3ccc(F)cc3C(=O)N(C)C(C)C)C4)OC2)cs1 [Example 54, 5-Fluoro-N-isopropyl-N-methyl-2-((4-(7-(((2S,5R)-5-((2-methylthiazole)-4-sulfonamido)tetrahydro-2H-pyran-2-yl)methyl)-2,7-diazaspiro[3.5]nonan-2-yl)pyrimidin-5-yl)oxy)benzamide]
CC(C)N(CC(F)F)C(=O)c1cc(F)ccc1Oc1cncnc1N1CC2(CCN(C[C@@H]3CC[C@@H](NS(=O)(=O)N4CC(OCc5ccccc5)C4)CO3)CC2)C1 [Example 236, 2-((4-(7-(((2S,5R)-5-((3-(Benzyloxy)azetidine)-1-sulfonamido)tetrahydro-2H-pyran-2-yl)methyl)-2,7-diazaspiro[3.5]nonan-2-yl)pyrimidin-5-yl)oxy)-N-(2,2-difluoroethyl)-5-fluoro-N-isopropylbenzamide]
CCN(C(=O)c1cc(F)ccc1Oc1cncnc1N1CC2(CCN(C[C@@H]3CC[C@@H](NS(=O)(=O)c4ccc(=O)n(C)c4)CO3)CC2)C1)C(C)C [Example 74, N-Ethyl-5-fluoro-N-isopropyl-2-((4-(7-(((2S,5R)-5-((1-methyl-6-oxo-1,6-dihydropyridine)-3-sulfonamido)tetrahydro-2H-pyran-2-yl)methyl)-2,7-diazaspiro[3.5]nonan-2-yl)pyrimidin-5-yl)oxy)benzamide]
CC(C)N(CC(F)F)C(=O)c1cc(F)ccc1Oc1cncnc1N1CC2(CCN(C[C@@H]3CC[C@@H](NS(=O)(=O)N4CC(O)C4)CO3)CC2)C1 [Example 237, N-(2,2-Difluoroethyl)-5-fluoro-2-((4-(7-(((2S,5R)-5-((3-hydroxyazetidine)-1-sulfonamido)tetrahydro-2H-pyran-2-yl)methyl)-2,7-diazaspiro[3.5]nonan-2-yl)pyrimidin-5-yl)oxy)-N-isopropylbenzamide]
CC(C)N(C(=O)c1cc(F)ccc1Oc1cncnc1N1CC2(CCN(C[C@@H]3CC[C@@H](NS(=N)(=O)C4CC4)CO3)CC2)C1)C(C)C (stereo partly drawn) [Example 233, 2-((4-(7-(((2S,5R)-5-(Cyclopropanesulfonoamidimidamido)tetrahydro-2H-pyran-2-yl)methyl)-2,7-diazaspiro[3.5]nonan-2-yl)pyrimidin-5-yl)oxy)-5-fluoro-N,N-diisopropylbenzamide]
Cc1nc(S(=O)(=O)N[C@@H]2CC[C@@H](CN3CCC4(CC3)CN(c3ncncc3Oc3ccc(F)cc3C(=O)N(C(C)C)[C@@H]3CCOC3)C4)OC2)cs1 [Example 133, 5-Fluoro-N-isopropyl-2-((4-(7-(((2S,5R)-5-((2-methylthiazole)-4-sulfonamido)tetrahydro-2H-pyran-2-yl)methyl)-2,7-diazaspiro[3.5]nonan-2-yl)pyrimidin-5-yl)oxy)-N-((R)-tetrahydrofuran-3-yl)benzamide]
COC[C@@H]1CCCN1S(=O)(=O)N[C@@H]1CC[C@@H](CN2CCC3(CC2)CN(c2ncncc2Oc2ccc(F)cc2C(=O)N(C(C)C)C(C)C)C3)OC1 [Example 213, 5-Fluoro-N,N-diisopropyl-2-((4-(7-(((2S,5R)-5-(((S)-2-(methoxymethyl)pyrrolidine)-1-sulfonamido)tetrahydro-2H-pyran-2-yl)methyl)-2,7-diazaspiro[3.5]nonan-2-yl)pyrimidin-5-yl)oxy)benzamide]
Cc1nc(S(=O)(=O)N[C@@H]2CC[C@@H](CN3CCC4(CC3)CN(c3ncncc3Oc3ccc(F)cc3C(=O)N(C(C)C)[C@H]3CCOC3)C4)OC2)cs1 [Example 135, 5-Fluoro-N-isopropyl-2-((4-(7-(((2S,5R)-5-((2-methylthiazole)-4-sulfonamido)tetrahydro-21H-pyran-2-yl)methyl)-2,7-diazaspiro[3.5]nonan-2-yl)pyrimidin-5-yl)oxy)-N-((S)-tetrahydrofuran-3-yl)benzamide]
CCS(=O)(=O)N[C@@H]1CC[C@@H](CN2CCC3(CC2)CN(c2ncncc2Oc2ccc(F)cc2C(=O)N(C(C)C)[C@@H]2CC[C@H]2O)C3)OC1 (single isomer, unassigned) [Example 256]
CC(C)N(C(=O)c1cc(F)ccc1Oc1cncnc1N1CC2(CCN(C[C@@H]3CC[C@@H](N[S@@](=N)(=O)c4ccccc4)CO3)CC2)C1)C(C)C (single isomer, unassigned) [Example 229]
CC(C)N(C(=O)c1cc(F)ccc1Oc1cncnc1N1CC2(CCN(C[C@@H]3CC[C@@H](NS(=N)(=O)c4ccccc4)CO3)CC2)C1)C(C)C (mixture of isomers) [Example 228, 5-Fluoro-N,N-diisopropyl-2-((4-(7-(((2S,5R)-5-(phenylsulfonoamidimidamido)tetrahydro-2H-pyran-2-yl)methyl)-2,7-diazaspiro[3.5]nonan-2-yl)pyrimidin-5-yl)oxy)benzamide]

IC50, 100 to 1000 nM:
CCS(=O)(=O)N[C@@H]1CC[C@@H](CN2CCC3(CC2)CN(c2ncncc2Oc2ccc(F)cc2C(=O)N(C(C)C)[C@H]2CC[C@@H]2O)C3)OC1 (single isomer, unassigned) [Example 257]
CC[S@@](=N)(=O)N[C@@H]1CC[C@@H](CN2CCC3(CC2)CN(c2ncncc2Oc2ccc(F)cc2C(=O)N(C(C)C)C(C)C)C3)OC1 (single isomer, unassigned) [Example 226]
CC(C)N(C)C(=O)c1cc(F)ccc1Oc1cncnc1N1CC2(CCN(C[C@@H]3CC[C@@H](NS(=O)(=O)c4cnn(C)c4)CO3)CC2)C1 [Example 139, 5-Fluoro-N-isopropyl-N-methyl-2-((4-(7-(((2S,5R)-5-((1-methyl-1H-pyrazole)-4-sulfonamido)tetrahydro-2H-pyran-2-yl)methyl)-2,7-diazaspiro[3.5]nonan-2-yl)pyrimidin-5-yl)oxy)benzamide]
CCS(=O)(=O)N[C@@H]1CC[C@@H](CN2CCC3(CC2)CN(c2ncncc2Oc2ccc(F)cc2C(=O)N(C(C)C)[C@H]2[C@@H]4COC[C@@H]42)C3)OC1 [Example 253, N-((1R,5S,6r)-3-Oxabicyclo[3.1.0]hexan-6-yl)-2-((4-(7-(((2S,5R)-5-(ethylsulfonamido)tetrahydro-2H-pyran-2-yl)methyl)-2,7-diazaspiro[3.5]nonan-2-yl)pyrimidin-5-yl)oxy)-5-fluoro-N-isopropylbenzamide]
